In publication PMC10376326, “Novel Acylselenourea Derivatives: Dual Molecules with Anticancer and Radical Scavenging Activity” (Antioxidants, 2023):
Entries after “also recorded” stand apart in the source; their conditions may differ. Like-named read-outs stand apart in the source and are kept apart here.

Experiments:
DU-145 cells [1] = assay: Annexin V & Dead Cell apoptosis assay; assay type: cell-based, human; conditions: DU-145, 10 µM, 24 h
Method: Induction of apoptosis was assayed using Annexin V & Dead Cell assay kit and Caspase 3/7 assay kit (EMD Millipore, Darmstadt, Germany). DU-145 cells were seeded in 6-well plates at a density of 6 × 10^5 cells/well and treated either with DMSO (control) or 10 µM of compounds 1.I and 5.I and incubated for 24 h. At the end of treatment, cells were harvested and processed with appropriate staining according to the manufacturer’s protocol. For the Caspase 3/7 assay, cells were stained with 5 μL of Muse™ Caspase 3/7 working solution and incubated at 37 °C for 30 min. After incubation, […] of Muse™ Caspase 7-AAD working solution was added and the samples were incubated for another 5 min at room temperature in the dark. For Annexin V assay, cells were stained with 100 μL pf Muse™ Annexin V & Dead Cell Reagent and incubated for 20 min at room temperature in the dark prior to analysis. Samples were further analyzed on a Muse™ Cell Analyzer (Merck Millipore, Darmstadt, Germany) using Muse™ 1.4 software. Data were obtained from at least two independent experiments.

[2] = system: HT-29 (colon) cancer cell line; assay: MTT cell viability assay, HT-29; assay type: cell-based; conditions: Homo sapiens, HT-29, 48 h, read-out: Cell growth %; for activity at 10 µM: HT-29, 10 µM; for activity at 50 µM: HT-29, 50 µM
Outline: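 MDA-MB-231, HTB-54 and DU-145 grown in RPMI 1640, HT-29 in McCoy's 5A (10% FBS). Output is % cell growth; IC50 determined; ≥3 experiments in quadruplicate.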

[3] = system: non-malignant BEAS-2B lung cell line; assay: MTT cell viability assay, BEAS-2B; assay type: cell-based; conditions: Homo sapiens, normal lung, 48 h
[4] = system: HTB-54 (lung) cancer cell line; assay: MTT cell viability assay, HTB-54; assay type: cell-based, human; conditions: for activity at 10 µM: read-out: Cell growth %, HTB-54, 10 µM, 48 h, MTT; for activity at 50 µM: read-out: Cell growth %, HTB-54, 50 µM, 48 h, MTT; for SI: IC50 (BEAS-2B)/IC50 (HTB-54)
DU-145 cells [5] = assay: Protective effects against H2O2-induced oxidative stress in DU-145 cells (MTT); assay type: cell-based, human; conditions: for fold increase of cell survival: 0.0015 mg/mL, DU-145 treated with 300, 250 and 200 µM H2O2; for Increase-fold: increase-fold of cell survival
[6] = Homo sapiens, HTB-54, 48 h, read-out: IC50 HTB-54, Lung, MTT, 48 h
[7] = compound 0.0003 mg/mL, 200 µM H2O2, DU-145
[8] = compound 0.0003 mg/mL, 250 µM H2O2, DU-145
[9] = compound 0.0003 mg/mL, 300 µM H2O2, DU-145
[10] = compound 0.0015 mg/mL, 200 µM H2O2, DU-145
[11] = compound 0.0015 mg/mL, 250 µM H2O2, DU-145
[12] = compound 0.0015 mg/mL, 300 µM H2O2, DU-145

Row | Compound | increase of late/dead apoptotic cells with respect to the control (DU-145 cells [1]) | viable population reduced by (DU-145 cells [1]) | activity at 10 µM [2] | activity at 50 µM [2] | IC50 [3] | activity at 10 µM ([4]; Homo sapiens, HTB-54, 48 h) | activity at 50 µM ([4]; Homo sapiens, HTB-54, 48 h) | IC50 [4, 6] | SI [4] | fold increase of cell survival (DU-145 cells [5]) | Increase-fold (DU-145 cells [5]; [7]) | Increase-fold (DU-145 cells [5]; [8]) | Increase-fold (DU-145 cells [5]; [9]) | Increase-fold (DU-145 cells [5]; [10]) | Increase-fold (DU-145 cells [5]; [11]) | Increase-fold (DU-145 cells [5]; [12]) | IC50 ([4]; read-out: IC50 HTB-54, Lung, MTT, 48 h)
1 | CCCNC(=[Se])NC(=O)c1ccco1 [Compound 1.I, N-(propylcarbamoselenoyl)furan-2-carboxamide] | about 25% | 37% | 44.2 ± 7.1% | 25.5 ± 4.2% | > 100 µM | 47.1 ± 14.8% | 31.6 ± 8.2% | < 10 µM | >12.7 | doubled cell viability; also recorded: greater two-fold increase of cell survival | 2.0 ± 0.0 | 2.0 ± 0.7 | 1.8 ± 0.4 | 2.3 ± 0.7 | 2.7 ± 0.4 | 2.3 ± 0.3 | 
2 | CCCNC(=[Se])NC(=O)c1ccccc1 [Compound 5.I, N-(propylcarbamoselenoyl)benzamide] | about 25% | 37% | 39.6 ± 14.3% | 21.4 ± 1.5% | > 100 µM | 36.8 ± 8.6% | 27.5 ± 6.5% | < 10 µM | >11.9 | doubled cell viability; also recorded: greater two-fold increase of cell survival | 1.9 ± 0.3 | 1.9 ± 0.4 | 1.7 ± 0.4 | 3.1 ± 0.5 | 2.7 ± 0.3 | 2.4 ± 0.4 | 8.4 ± 3.9 µM
